Measurements as given in article PMC6364417, “Kinase inhibitor library screening identifies synergistic drug combinations effective in sensitive and resistant melanoma cells” (Journal of Experimental & Clinical Cancer Research : CR, 2019).

Legend:
Assay in all cases: Kinase inhibitor library screening, PrestoBlue cell viability, 1 or 10 μM, 72 h
501Mel cells (parental) = conditions: 501Mel Parental, in %
How it was run: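 Values are % viability versus untreated wells, measured by PrestoBlue after a 72 h drug exposure. Screens covered the parental line plus sublines rendered resistant to Vemurafenib or Dabrafenib, each analysed in at least duplicate.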

[1] = system: 501Mel-GP cells (Dabrafenib-resistant); conditions: 501Mel GP, in %
[2] = system: 501Mel-XP cells (Vemurafenib-resistant); conditions: 501Mel XP, in %; for Cell viability in kinase inhibitor library screening, 501Mel XP, 1μΜ / Cell viability in kinase inhibitor library screening, 501Mel XP, 10μΜ: 72 h
A375 cells (parental) = conditions: A375 Parental; for cell viability (kinase inhibitor library screening): in %
[3] = system: A375-GP cells (Dabrafenib-resistant); conditions: A375 GP; for cell viability (kinase inhibitor library screening): in %
[4] = system: A375-XP cells (Vemurafenib-resistant); conditions: A375 XP; for cell viability (kinase inhibitor library screening): in %
IGR37 cells (parental) = conditions: IGR37 Parental, in %; for Cell viability in kinase inhibitor library screening, IGR37 Parental, 1μΜ / Cell viability in kinase inhibitor library screening, IGR37 Parental, 10μΜ: 72 h
[5] = system: IGR37-GP cells (Dabrafenib-resistant); conditions: IGR37 GP; for Cell viability in kinase inhibitor library screening, IGR37 GP, 10μΜ / Cell viability in kinase inhibitor library screening, IGR37 GP, 1μΜ: 72 h; for Cell viability in kinase inhibitor library screening, IGR37 GP, 1μΜ / cell viability (kinase inhibitor library screening): in %
[6] = system: IGR37-XP cells (Vemurafenib-resistant); conditions: IGR37 XP

SMILES	Cell viability in kinase inhibitor library screening, 501Mel Parental, 10μΜ (501Mel cells (parental); 10μΜ, 72 h)	Cell viability in kinase inhibitor library screening, 501Mel GP, 10μΜ ([1]; 10μΜ, 72 h)	Cell viability in kinase inhibitor library screening, 501Mel XP, 1μΜ ([2]; 1μΜ)	Cell viability in kinase inhibitor library screening, 501Mel XP, 10μΜ ([2]; 10μΜ)	Cell viability in kinase inhibitor library screening, A375 Parental, 1μΜ (A375 cells (parental); 1μΜ, 72 h)	Cell viability in kinase inhibitor library screening, A375 GP, 10μΜ ([3]; 10μΜ, 72 h)	Cell viability in kinase inhibitor library screening, A375 XP, 1μΜ ([4]; 1μΜ, 72 h)	Cell viability in kinase inhibitor library screening, IGR37 Parental, 1μΜ (IGR37 cells (parental); 1μΜ)	Cell viability in kinase inhibitor library screening, IGR37 Parental, 10μΜ (IGR37 cells (parental); 10μΜ)	Cell viability in kinase inhibitor library screening, IGR37 GP, 10μΜ ([5]; 10μΜ)	Cell viability in kinase inhibitor library screening, IGR37 GP, 1μΜ ([5]; 1μΜ)	Cell viability in kinase inhibitor library screening, IGR37 XP, 10μΜ ([6]; 10μΜ, 72 h)	cell viability (kinase inhibitor library screening) (501Mel cells (parental); 1μΜ)	cell viability (kinase inhibitor library screening) ([1]; 10μΜ)	cell viability (kinase inhibitor library screening) ([2]; 1μΜ)	cell viability (kinase inhibitor library screening) ([2]; 10μΜ)	cell viability (kinase inhibitor library screening) (A375 cells (parental); 10μΜ)	cell viability (kinase inhibitor library screening) ([3]; 1μΜ)	cell viability (kinase inhibitor library screening) ([3]; 10μΜ)	cell viability (kinase inhibitor library screening) ([4]; 10μΜ)	other results
CCn1c(=O)c(-c2cc[nH]n2)cc2c(C)nc(N)nc21 [XL765]	98.4	92.1	96.7	77.0	105.9	92.4	106.1	100.4	106.2	96.8%	95.1	68.4%	–	–	–	–	–	–	–	–	Cell viability in kinase inhibitor library screening, 501Mel Parental, 1μΜ (501Mel cells (parental); 1μΜ, 72 h): 93.5; Cell viability in kinase inhibitor library screening, 501Mel GP, 1μΜ ([1]; 1μΜ, 72 h): 109.6
COc1cc2nccc(Oc3ccc(NC(=O)C4(C(=O)Nc5ccc(F)cc5)CC4)cc3)c2cc1OC [XL-184 free base (Cabozantinib)]	–	–	–	–	–	–	–	–	–	–	–	–	90.2	38.8	58.9	24.9	40.5	97.8	41.3	51.6	cell viability (kinase inhibitor library screening) (501Mel cells (parental); 10μΜ): 73.6; cell viability (kinase inhibitor library screening) ([1]; 1μΜ): 76.7; cell viability (kinase inhibitor library screening) (A375 cells (parental); 1μΜ): 98.4; cell viability (kinase inhibitor library screening) (IGR37 cells (parental); 1μΜ): 94.2; cell viability (kinase inhibitor library screening) (IGR37 cells (parental); 10μΜ): 42.6; cell viability (kinase inhibitor library screening) ([5]; 1μΜ): 96.8; cell viability (kinase inhibitor library screening) ([5]; 10μΜ): 14.8; cell viability (kinase inhibitor library screening) ([6]; 1μΜ, in %): 90.6; cell viability (kinase inhibitor library screening) ([6]; 10μΜ, in %): 3.1
C[C@@H](N)[C@H]1CC[C@H](C(=O)Nc2ccncc2)CC1.Cl.Cl [Y-27632 2HCl]	–	–	–	–	–	–	–	–	–	–	–	–	96.3	87.8	90.1	88.2	91.8	97.3	96.3	107.2	cell viability (kinase inhibitor library screening) ([4]; 1μΜ): 103.7; cell viability (kinase inhibitor library screening) (IGR37 cells (parental); 10μΜ): 97.4; cell viability (kinase inhibitor library screening) ([5]; 1μΜ): 98.0; cell viability (kinase inhibitor library screening) ([5]; 10μΜ): 91.2; cell viability (kinase inhibitor library screening) ([6]; 1μΜ, in %): 97.8; cell viability (kinase inhibitor library screening) ([6]; 10μΜ, in %): 70.6
Nc1ccc(C(=O)Nc2cccc(-c3nc(N4CCOCC4)c4oc5ncccc5c4n3)c2)cn1 [YM201636]	44.1	31.8	91.0	17.1	99.8	53.2	100.1	90.0	53.4	3.3%	56.3	1.2%	–	–	–	–	–	–	–	–	Cell viability in kinase inhibitor library screening, A375 Parental, 10μΜ (A375 cells (parental); 10μΜ, 72 h): 56.6; Cell viability in kinase inhibitor library screening, A375 GP, 1μΜ ([3]; 1μΜ, 72 h): 96.0; Cell viability in kinase inhibitor library screening, A375 XP, 10μΜ ([4]; 10μΜ, 72 h): 52.8; Cell viability in kinase inhibitor library screening, IGR37 XP, 1μΜ ([6]; 1μΜ, 72 h, in %): 35.0
